Format in all cases: in vivo
Series [1] has as its system Monocotyledonous and dicotyledonous test plants. Description: Pre-emergence test: herbicidal action (% action) of single active ingredients and mixtures, with expected action We according to Colby. Particulars: for herbicidal action (% action): evaluated after 36 days. The text has this: (§1) The herbicidal action to be expected We for a given combination of two herbicides can be calculated as follows (see COLBY, S. R., “Calculating synergistic and antagonistic response of herbicide combinations”, Weeds 15, pages 20-22,1967):
(§2) When the action actually observed is greater than the value to be expected We, there is a synergistic effect.
Experiment Description—Pre-emergence Test
Monocotyledonous and dicotyledonous test plants are sown in standard soil in plastics pots. Directly after sowing, the test substances are applied in aqueous suspension by spraying (500 liters of water/ha). The rates of application depend on the optimum doses ascertained under field conditions and greenhouse conditions. The test plants are then grown on in the greenhouse under optimum conditions. The tests are evaluated after 36 days (% action, 100%=plant has died, 0%=no phytotoxic action).
In the following Tables, evaluation is carried out after 14 days:
In the following Tables, evaluation is carried out after 31 days: […]

The subject of series [2] is test plants. Description: Post-emergence test: herbicidal action (% action) of the herbicide on its own and as a mixture, with expected action We according to Colby.
Excerpt: A synergistic effect exists whenever the action of the active ingredient combination of compounds of formula 1 and 2.1 to 2.51 is greater than the sum of the actions of the active ingredients applied separately.
as §1
• X=percentage herbicidal action on treatment with the compound of formula I at a rate of application of p kg per hectare, compared with the untreated control (=0%). • Y=percentage herbicidal action on treatment with a compound of formula 2.1 to 2.51 at a rate of application of q kg per hectare, compared with the untreated control. • We=expected herbicidal action (percentage herbicidal action compared with the untreated control) following treatment with the compounds of formulae 1 and 2.1 to 2.51 at a rate of application of p+q kg of active ingredient per hectare.
as §2
Experiment Description—Post-emergence Test
The test plants are grown to the 2- to 3-leaf stage in plastics pots under greenhouse conditions. A standard soil is used as cultivation substrate. At the 2- to 3-leaf stage, the herbicide is applied to the test plants on its own and as a mixture. The application is carried out using an aqueous suspension of the test substances in 500 liters of water/ha. The rates of application depend on the optimum doses ascertained under field conditions and greenhouse conditions. The tests are evaluated after 33 days (% action, 100%=plant has died, 0%=no phytotoxic action).
Mixture A contains as active ingredients 915 g/liter of the compound of formula 2.2a and 45 g/liter of the compound of formula 3.1.
In the following Tables, evaluation is carried out after 21 days: […]

For series [3], the system named is crop plants, e.g. maize and cereals. Description: Safening action: phytotoxic action of the herbicides on crop plants with and without safener. Particulars: 50 g/ha herbicide alone, applied at 4-leaf stage, 4 weeks after application. Here is the method:
Biological Example: Safening Action
The test plants are grown in plastics pots under greenhouse conditions to the 4-leaf stage. At that stage, the herbicides alone, and the mixtures of the herbicides with the test compounds that are to be tested as safeners, are applied to the test plants. The application is in the form of an aqueous suspension of the test compounds prepared from a 25% wettable powder (Example F3, b)) with 500 liters of water/ha. 4 weeks after application, the phytotoxic action of the herbicides on the crop plants, e.g. maize and cereals, is evaluated using a percentage scale. 100% denotes that the test plant has died, 0% denotes no phytotoxic action.
The same results are obtained when the mixtures are formulated in accordance with Examples F1, F2 and F4 to F8.

The values below come from patent US6890885B2, “Herbicidal composition” (priority 2000, dated 2005).

Where “and” joins values, the source holds several entries; their conditions need not be identical. Equal entries are not always repeated.

`Cc1nc(C(F)(F)F)ccc1C(=O)C1=C(O)C2CCC(C2)C1=O` (centres unmarked) [Compound 1.001, 4-hydroxy-3-(2-methyl-6-trifluoromethyl-pyridine-3-carbonyl)-bicyclo[3.2.1]oct-3-en-2-one]: the herbicidal action in series [1] (Amaranthus, 6 g/ha, after 23 days) turned out to be 10%; in series [1] (Chenopodium, 6 g/ha, after 23 days (Table B37)), 50%; in series [1] (Chenopodium, 6 g/ha, after 23 days (Table B38)), 50%; in series [1] (Chenopodium, 12.5 g/ha, after 14 days (Table B19)), 80%; in series [1] (Chenopodium, 12.5 g/ha, after 14 days (Table B20)), 80%; in series [1] (Chenopodium, 25 g/ha, after 14 days), 80%. Further, the herbicidal action was 0% in series [1] (Cyperus, 12.5 g/ha, after 14 days (Table B19)); 0% in series [1] (Cyperus, 12.5 g/ha, after 14 days (Table B20)); 0% in series [1] (Cyperus, 25 g/ha, after 14 days (Table B18)); 10% in series [1] (Cyperus, 25 g/ha, after 14 days (Table B22)); 70% in series [1] (Ipomoea, 25 g/ha, after 31 days (Table B25)); 70% in series [1] (Ipomoea, 25 g/ha, after 31 days (Table B26)). The herbicidal action was determined as 70% in series [1] (Ipomoea, 25 g/ha, after 31 days (Table B27)); 0% in series [1] (Polygonum, 25 g/ha, after 31 days (Table B23)); 0% in series [1] (Polygonum, 25 g/ha, after 31 days (Table B24)); 0% in series [1] (Polygonum, 50 g/ha, after 31 days); 75% in series [1] (Solanum, 12.5 g/ha, after 14 days (Table B19)); 75% in series [1] (Solanum, 12.5 g/ha, after 14 days (Table B20)). The herbicidal action was 75% in series [1] (Solanum, 12.5 g/ha, after 14 days (Table B21)); 80% in series [1] (Solanum, 25 g/ha, after 14 days); 80% in series [1] (Xanthium, 25 g/ha, after 31 days (Table B25)); 80% in series [1] (Xanthium, 25 g/ha, after 31 days (Table B26)); 80% in series [1] (Xanthium, 25 g/ha, after 31 days (Table B27)); 0% in series [2] (Ipomoea, 6.25 g/ha, post-emergence, after 33 days). In addition, the herbicidal action in series [2] (Ipomoea, 6.25 g/ha, post-emergence, after 33 days (Table B10)) is given as 0%; in series [2] (Ipomoea, 12.5 g/ha, post-emergence, after 21 days) it was 30%; in series [2] (Ipomoea, 12.5 g/ha, post-emergence, after 33 days) it was 0%; in series [2] (Ipomoea, 12.5 g/ha, post-emergence, after 33 days (Table B8)) it was 0%; in series [2] (Ipomoea, 25 g/ha, post-emergence, after 21 days (Table B29)), 30%; in series [2] (Ipomoea, 25 g/ha, post-emergence, after 21 days (Table B30)), 30%. In addition, the herbicidal action is on record as 30% in series [2] (Ipomoea, 25 g/ha, post-emergence, after 21 days (Table B31)); 30% in series [2] (Ipomoea, 25 g/ha, post-emergence, after 21 days (Table B33)); 0% in series [2] (Polygonum, 6.25 g/ha, post-emergence, after 33 days); 0% in series [2] (Polygonum, 6.25 g/ha, post-emergence, after 33 days (Table B10)); 30% in series [2] (Polygonum, 12.5 g/ha, post-emergence, after 21 days (Table B32)); 30% in series [2] (Polygonum, 12.5 g/ha, post-emergence, after 21 days (Table B34)). The herbicidal action in series [2] (Polygonum, 12.5 g/ha, post-emergence, after 21 days (Table B35)) is listed as 30%; in series [2] (Polygonum, 12.5 g/ha, post-emergence, after 33 days), 0%; in series [2] (Polygonum, 12.5 g/ha, post-emergence, after 33 days (Table B8)), 0%; in series [2] (Polygonum, 25 g/ha, post-emergence, after 21 days (Table B29)) it was 75%; in series [2] (Polygonum, 25 g/ha, post-emergence, after 21 days (Table B31)), 75%; in series [2] (Polygonum, 25 g/ha, post-emergence, after 21 days (Table B36)), 75%. The herbicidal action in series [2] (Xanthium, 6.25 g/ha, post-emergence, after 33 days) was determined as 70%; in series [2] (Xanthium, 6.25 g/ha, post-emergence, after 33 days (Table B10)) it was 70%; in series [2] (Xanthium, 12.5 g/ha, post-emergence, after 33 days) it was 80%; in series [2] (Xanthium, 12.5 g/ha, post-emergence, after 33 days (Table B8)), 80%; in series [2] (Xanthium, 25 g/ha, post-emergence, after 21 days), 90%. Further, the “herbicidal action (% action)” value in series [1] (Chenopodium, Compd. 1.001 6.25 g/ha) is reported as 0%; in series [1] (Chenopodium, Compd. 1.001 12.5 g/ha), 0%; in series [1] (Chenopodium, Compd. 1.001 25 g/ha), 0%; in series [1] (Ipomoea, Compd. 1.001 6.25 g/ha), 0%; in series [1] (Ipomoea, Compd. 1.001 12.5 g/ha) it was 0%; in series [1] (Ipomoea, Compd. 1.001 25 g/ha), 30%. The “herbicidal action (% action)” value was determined as 0% in series [1] (Sida, Compd. 1.001 6.25 g/ha); 0% in series [1] (Sida, Compd. 1.001 12.5 g/ha); 0% in series [1] (Sida, Compd. 1.001 25 g/ha); 0% in series [1] (Sorghum, Compd. 1.001 6.25 g/ha); 0% in series [1] (Sorghum, Compd. 1.001 12.5 g/ha); 30% in series [1] (Sorghum, Compd. 1.001 25 g/ha). The phytotoxic action was found to be 100% in series [3] (Abutilon), 50% in series [3] (Maize) and 100% in series [3] (Setaria).

For `CCc1cccc(C)c1N(COCCl)C(C)COC` (centres unmarked) [Compound 2.2.b, reference compound], the herbicidal action was 0% in series [1] (Chenopodium, 300 g/ha, after 14 days); 0% in series [1] (Cyperus, 300 g/ha, after 14 days); 40% in series [1] (Solanum, 300 g/ha, after 14 days).

With `CSc1nnc(C(C)(C)C)c(=O)n1N` [Compound 2.14, metribuzin, reference compound], the herbicidal action in series [1] (Ipomoea, 125 g/ha, after 31 days) is listed as 0%; in series [1] (Polygonum, 125 g/ha, after 14 days (Table B13)), 30%; in series [1] (Polygonum, 250 g/ha, after 14 days), 50%; in series [1] (Xanthium, 125 g/ha, after 31 days) it was 20%.

As for `O=C(O)CNCP(=O)(O)O` [Compound 2.16, glyphosate, reference compound], the herbicidal action in series [2] (in vivo) was 20% and 10%.

For `CCC(CC)Nc1c([N+](=O)[O-])cc(C)c(C)c1[N+](=O)[O-]` [Compound 2.18, pendimethalin, reference compound], the herbicidal action in series [1] (Polygonum, 500 g/ha, after 14 days) came out at 80%.

On to `COc1c(Cl)ccc(Cl)c1C(=O)O` [Compound 2.19, dicamba, reference compound], for which, in series [2] (in vivo), the herbicidal action is reported as 60%.

With `COC(=O)CSc1cc(/N=c2\sc(=O)n3n2CCCC3)c(F)cc1Cl` [Compound 2.25, fluthiacet-methyl, reference compound], the herbicidal action in series [2] (Ipomoea, 2 g/ha, post-emergence, after 21 days) turned out to be 0%; in series [2] (Polygonum, 2 g/ha, post-emergence, after 21 days) it was 0%.

On to `CC(C)N(C(=O)COc1nnc(C(F)(F)F)s1)c1ccc(F)cc1` [Compound 2.30, fluthiamid, reference compound], for which the herbicidal action in series [1] (Cyperus, 100 g/ha, after 14 days (Table B22)) came to 0%; in series [1] (Polygonum, 60 g/ha, after 14 days (Table B15)), 30%.

Turning to `O=C(O)CNCP(=O)(O)O` [Compound 2.33, sulfosate, reference compound], the herbicidal action in series [2] (Polygonum, 360 g/ha, post-emergence, after 21 days (Table B32)) worked out at 0%.
